Assay results reported in ChEMBL document CHEMBL4184336, “Structure-Guided Modification of Heterocyclic Antagonists of the P2Y14 Receptor” (J Med Chem, 2018).

Key:
P2Y purinoceptor 14 = molecular target: T1, P2Y purinoceptor 14 (Homo sapiens, UniProt Q15391)
T1 sequence (Q15391 whole entry): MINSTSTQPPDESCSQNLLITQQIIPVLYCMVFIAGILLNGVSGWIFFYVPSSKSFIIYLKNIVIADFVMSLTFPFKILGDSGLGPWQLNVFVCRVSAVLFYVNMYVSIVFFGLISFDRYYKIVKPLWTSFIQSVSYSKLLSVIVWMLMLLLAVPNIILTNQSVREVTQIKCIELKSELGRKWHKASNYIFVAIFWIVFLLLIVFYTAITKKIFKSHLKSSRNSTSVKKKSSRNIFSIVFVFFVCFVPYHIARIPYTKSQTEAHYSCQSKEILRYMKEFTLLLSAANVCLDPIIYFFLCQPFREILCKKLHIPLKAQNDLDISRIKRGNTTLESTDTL
Description: Displacement of MRS4174 from human P2Y14R expressed in CHO cells preincubated for 30 mins followed by MRS4174 addition measured after 30 mins by flow cytometric method

[1] = molecular target: Sodium-dependent noradrenaline transporter (Homo sapiens, UniProt P23975); assay: Displacement of [3H]-Nisoxetine from human NET expressed in HEK293 cell membranes after 90 mins by scintillation counting method
[2] = molecular target: 5-hydroxytryptamine receptor 1A (Homo sapiens, UniProt P08908); assay: Displacement of [3H]-Way100635 from human 5-HT1A receptor expressed in CHO cell membranes after 90 mins by scintillation counting method
Sequence of 5-hydroxytryptamine receptor 1A (P08908 whole entry): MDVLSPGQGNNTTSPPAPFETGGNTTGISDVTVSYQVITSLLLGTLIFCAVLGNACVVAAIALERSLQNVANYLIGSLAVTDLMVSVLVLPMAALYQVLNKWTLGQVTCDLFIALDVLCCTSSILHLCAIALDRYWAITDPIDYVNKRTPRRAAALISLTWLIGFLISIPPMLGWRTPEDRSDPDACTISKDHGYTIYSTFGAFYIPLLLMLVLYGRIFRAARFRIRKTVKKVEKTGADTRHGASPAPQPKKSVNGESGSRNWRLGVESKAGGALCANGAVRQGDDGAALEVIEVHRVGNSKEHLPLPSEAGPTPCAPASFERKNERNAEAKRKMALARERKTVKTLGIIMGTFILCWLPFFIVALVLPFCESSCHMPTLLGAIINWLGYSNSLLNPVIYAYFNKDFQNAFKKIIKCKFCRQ

[3] = molecular target: 5-hydroxytryptamine receptor 2A (Homo sapiens, UniProt P28223); assay: Displacement of [3H]-Ketanserin from human 5-HT2A receptor expressed in HEK293T cell membranes after 90 mins by scintillation counting method
[4] = molecular target: Alpha-1A adrenergic receptor (Homo sapiens, UniProt P35348); assay: Displacement of [3H]-Prazosin from human adrenergic alpha1A receptor after 90 mins by scintillation counting method
[5] = molecular target: Alpha-1B adrenergic receptor (Homo sapiens, UniProt P35368); assay: Displacement of [3H]-Prazosin from human adrenergic alpha1B receptor after 90 mins by scintillation counting method
Sequence of Alpha-1B adrenergic receptor (P35368 whole entry): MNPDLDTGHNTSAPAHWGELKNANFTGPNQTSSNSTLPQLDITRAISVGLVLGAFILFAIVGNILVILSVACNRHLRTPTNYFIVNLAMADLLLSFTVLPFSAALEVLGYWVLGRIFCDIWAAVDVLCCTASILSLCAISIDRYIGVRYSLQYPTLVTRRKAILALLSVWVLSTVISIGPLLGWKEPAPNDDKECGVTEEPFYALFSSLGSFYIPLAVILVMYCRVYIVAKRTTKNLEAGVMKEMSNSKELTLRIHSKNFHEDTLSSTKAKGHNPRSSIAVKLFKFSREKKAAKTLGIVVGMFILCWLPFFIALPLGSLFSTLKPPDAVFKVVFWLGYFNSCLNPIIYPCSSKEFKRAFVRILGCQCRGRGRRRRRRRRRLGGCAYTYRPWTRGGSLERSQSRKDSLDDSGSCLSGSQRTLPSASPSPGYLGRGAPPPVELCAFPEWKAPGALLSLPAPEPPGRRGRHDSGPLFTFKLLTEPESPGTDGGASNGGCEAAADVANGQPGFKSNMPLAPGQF

[6] = molecular target: Alpha-1D adrenergic receptor (Homo sapiens, UniProt P25100); assay: Displacement of [3H]-Prazosin from human adrenergic alpha1D receptor after 90 mins by scintillation counting method
Sequence of Alpha-1D adrenergic receptor (P25100 whole entry): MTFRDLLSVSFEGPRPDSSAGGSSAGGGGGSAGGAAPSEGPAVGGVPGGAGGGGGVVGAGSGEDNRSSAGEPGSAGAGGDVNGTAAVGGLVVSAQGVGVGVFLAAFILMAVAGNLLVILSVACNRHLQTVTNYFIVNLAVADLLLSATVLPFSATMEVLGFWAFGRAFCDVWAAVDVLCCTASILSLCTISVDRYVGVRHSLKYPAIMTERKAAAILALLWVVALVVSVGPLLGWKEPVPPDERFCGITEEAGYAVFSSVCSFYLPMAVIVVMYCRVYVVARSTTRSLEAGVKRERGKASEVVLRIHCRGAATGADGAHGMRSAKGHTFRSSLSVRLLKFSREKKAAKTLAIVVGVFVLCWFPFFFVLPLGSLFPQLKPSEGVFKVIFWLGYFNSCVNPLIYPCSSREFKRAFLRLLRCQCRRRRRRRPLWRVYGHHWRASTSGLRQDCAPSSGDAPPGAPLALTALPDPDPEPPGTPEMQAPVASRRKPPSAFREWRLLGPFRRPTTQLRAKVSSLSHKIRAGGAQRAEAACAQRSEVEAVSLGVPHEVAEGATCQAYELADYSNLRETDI

[7] = molecular target: Alpha-2A adrenergic receptor (Homo sapiens, UniProt P08913); assay: Displacement of [3H]Rauwolscine from human adrenergic alpha2A receptor expressed in MDCK cell membranes after 90 mins by scintillation counting method
Sequence of Alpha-2A adrenergic receptor (P08913 whole entry): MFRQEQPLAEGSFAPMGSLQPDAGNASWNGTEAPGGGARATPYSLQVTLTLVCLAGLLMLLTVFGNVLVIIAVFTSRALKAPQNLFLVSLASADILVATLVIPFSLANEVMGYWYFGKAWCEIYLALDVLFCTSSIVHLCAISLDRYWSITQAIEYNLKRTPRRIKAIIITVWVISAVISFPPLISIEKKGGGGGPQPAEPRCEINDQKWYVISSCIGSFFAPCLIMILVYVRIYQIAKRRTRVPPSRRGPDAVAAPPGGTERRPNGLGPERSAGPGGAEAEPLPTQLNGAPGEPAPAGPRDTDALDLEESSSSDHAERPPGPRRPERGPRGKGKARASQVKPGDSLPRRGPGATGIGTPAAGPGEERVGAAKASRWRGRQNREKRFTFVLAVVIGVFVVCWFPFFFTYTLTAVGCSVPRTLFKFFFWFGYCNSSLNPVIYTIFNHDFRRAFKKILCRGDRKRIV

[8] = molecular target: Alpha-2B adrenergic receptor (Homo sapiens, UniProt P18089); assay: Displacement of [3H]Rauwolscine from human adrenergic alpha2B receptor expressed in HEK293T cell membranes after 90 mins by scintillation counting method
D(1A) dopamine receptor = D(1A) dopamine receptor (Homo sapiens, UniProt P21728); assay: Displacement of [3H]SCH23390 from human dopamine D1 receptor expressed in HEK293T cell membranes after 90 mins by scintillation counting method
Sequence of D(1A) dopamine receptor (P21728 whole entry): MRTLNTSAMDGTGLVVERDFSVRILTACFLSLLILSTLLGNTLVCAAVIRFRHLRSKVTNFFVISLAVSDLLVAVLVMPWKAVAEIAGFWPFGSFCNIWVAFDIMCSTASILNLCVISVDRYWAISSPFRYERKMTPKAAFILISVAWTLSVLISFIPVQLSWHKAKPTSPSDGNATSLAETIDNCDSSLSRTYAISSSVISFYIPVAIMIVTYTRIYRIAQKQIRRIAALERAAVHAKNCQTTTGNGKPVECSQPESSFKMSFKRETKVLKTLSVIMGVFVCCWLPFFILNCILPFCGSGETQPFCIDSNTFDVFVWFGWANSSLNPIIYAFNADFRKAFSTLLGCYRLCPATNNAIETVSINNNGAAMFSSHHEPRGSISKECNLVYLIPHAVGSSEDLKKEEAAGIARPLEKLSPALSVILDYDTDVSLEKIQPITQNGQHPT

D(2) dopamine receptor = D(2) dopamine receptor (Homo sapiens, UniProt P14416); assay: Displacement of [3H]N-methylspiperone from human dopamine D2 receptor expressed in HEK293T cell membranes after 90 mins by scintillation counting method
Sequence of D(2) dopamine receptor (P14416 whole entry): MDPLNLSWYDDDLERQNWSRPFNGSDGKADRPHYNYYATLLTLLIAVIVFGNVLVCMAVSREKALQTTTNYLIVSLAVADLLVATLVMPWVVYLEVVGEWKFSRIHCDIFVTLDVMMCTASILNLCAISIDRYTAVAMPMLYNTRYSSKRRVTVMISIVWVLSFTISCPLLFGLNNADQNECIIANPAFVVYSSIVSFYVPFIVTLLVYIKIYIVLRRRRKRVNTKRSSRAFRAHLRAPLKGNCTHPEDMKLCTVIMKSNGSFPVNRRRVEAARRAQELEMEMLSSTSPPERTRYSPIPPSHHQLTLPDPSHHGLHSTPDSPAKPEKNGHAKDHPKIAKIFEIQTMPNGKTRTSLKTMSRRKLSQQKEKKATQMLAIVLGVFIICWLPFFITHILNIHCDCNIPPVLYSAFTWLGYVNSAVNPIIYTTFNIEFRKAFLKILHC

D(3) dopamine receptor = D(3) dopamine receptor (Homo sapiens, UniProt P35462); assay: Displacement of [3H]N-methylspiperone from human dopamine D3 receptor expressed in HEK293T cell membranes after 90 mins by scintillation counting method
D(1B) dopamine receptor = D(1B) dopamine receptor (Homo sapiens, UniProt P21918); assay: Displacement of [3H]SCH23390 from human dopamine D5 receptor expressed in HEK293T cell membranes after 90 mins by scintillation counting method
Sequence of D(1B) dopamine receptor (P21918 whole entry): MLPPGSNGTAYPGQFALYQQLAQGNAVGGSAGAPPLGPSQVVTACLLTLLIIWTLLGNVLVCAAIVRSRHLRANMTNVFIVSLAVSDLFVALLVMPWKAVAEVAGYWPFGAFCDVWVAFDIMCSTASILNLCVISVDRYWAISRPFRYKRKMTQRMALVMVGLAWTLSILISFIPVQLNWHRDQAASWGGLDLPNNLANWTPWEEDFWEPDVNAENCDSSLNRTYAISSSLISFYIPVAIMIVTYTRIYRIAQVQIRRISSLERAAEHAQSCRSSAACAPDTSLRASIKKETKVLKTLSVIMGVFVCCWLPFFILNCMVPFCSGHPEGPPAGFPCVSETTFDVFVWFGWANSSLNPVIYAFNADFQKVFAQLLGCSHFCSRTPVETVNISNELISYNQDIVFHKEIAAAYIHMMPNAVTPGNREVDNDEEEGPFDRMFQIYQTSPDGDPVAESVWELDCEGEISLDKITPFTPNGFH

Histamine H2 receptor = Histamine H2 receptor (Homo sapiens, UniProt P25021); assay: Displacement of [125I]-Iodoaminopotentidine from human histamine H2 receptor expressed in HEK293T cell membranes after 90 mins by scintillation counting method
Sequence of Histamine H2 receptor (P25021 whole entry): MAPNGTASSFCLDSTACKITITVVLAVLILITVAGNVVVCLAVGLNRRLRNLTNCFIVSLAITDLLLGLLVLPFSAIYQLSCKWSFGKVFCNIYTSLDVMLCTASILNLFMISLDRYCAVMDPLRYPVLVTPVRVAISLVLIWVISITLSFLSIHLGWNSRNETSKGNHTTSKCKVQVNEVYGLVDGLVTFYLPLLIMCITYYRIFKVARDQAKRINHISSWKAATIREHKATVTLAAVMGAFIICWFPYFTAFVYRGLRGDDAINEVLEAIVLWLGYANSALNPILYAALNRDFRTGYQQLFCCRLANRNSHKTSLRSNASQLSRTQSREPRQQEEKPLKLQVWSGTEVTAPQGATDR

[9] = molecular target: Sigma intracellular receptor 2 (Homo sapiens, UniProt Q5BJF2); assay: Displacement of [3H]-DTG from human sigma2 receptor expressed in HEK293T cell membranes after 90 mins by scintillation counting method
Sequence of Sigma intracellular receptor 2 (Q5BJF2 whole entry): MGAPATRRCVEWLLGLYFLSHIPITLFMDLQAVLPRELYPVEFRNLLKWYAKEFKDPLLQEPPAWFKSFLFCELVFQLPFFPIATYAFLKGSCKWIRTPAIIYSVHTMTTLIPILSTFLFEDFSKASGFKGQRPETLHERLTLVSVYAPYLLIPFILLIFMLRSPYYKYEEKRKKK

[10] = molecular target: Sodium-dependent dopamine transporter (Homo sapiens, UniProt Q01959); assay: Displacement of [3H]-WIN35428 from human DAT after 90 mins by scintillation counting method
Sequence of Sodium-dependent dopamine transporter (Q01959 whole entry): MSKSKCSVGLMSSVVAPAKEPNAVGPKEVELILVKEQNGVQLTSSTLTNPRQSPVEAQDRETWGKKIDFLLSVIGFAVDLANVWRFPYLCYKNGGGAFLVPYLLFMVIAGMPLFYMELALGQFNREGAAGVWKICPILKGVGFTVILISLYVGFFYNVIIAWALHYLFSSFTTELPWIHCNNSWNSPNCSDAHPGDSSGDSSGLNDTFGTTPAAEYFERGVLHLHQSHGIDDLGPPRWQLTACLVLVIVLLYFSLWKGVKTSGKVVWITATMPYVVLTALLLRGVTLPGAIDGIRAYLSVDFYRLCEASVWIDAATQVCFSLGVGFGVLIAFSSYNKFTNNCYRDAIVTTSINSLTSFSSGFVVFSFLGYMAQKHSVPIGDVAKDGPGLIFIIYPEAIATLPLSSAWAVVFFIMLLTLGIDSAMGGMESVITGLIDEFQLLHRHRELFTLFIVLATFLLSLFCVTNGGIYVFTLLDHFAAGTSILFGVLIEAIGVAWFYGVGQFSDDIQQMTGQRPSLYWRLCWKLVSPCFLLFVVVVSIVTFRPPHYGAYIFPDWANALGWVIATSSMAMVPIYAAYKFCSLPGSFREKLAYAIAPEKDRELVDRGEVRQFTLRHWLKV

[11] = molecular target: 5-hydroxytryptamine receptor 6 (Homo sapiens, UniProt P50406); assay: Displacement of [3H]-LSD from human 5-HT6 receptor expressed in HEK293 cell membranes after 90 mins by scintillation counting method
[12] = molecular target: Beta-3 adrenergic receptor (Homo sapiens, UniProt P13945); assay: Displacement of [3H]-CGP12177 from human adrenergic beta-3 receptor expressed in HEK Flp-In cell membranes after 90 mins by scintillation counting method
Sequence of Beta-3 adrenergic receptor (P13945 whole entry): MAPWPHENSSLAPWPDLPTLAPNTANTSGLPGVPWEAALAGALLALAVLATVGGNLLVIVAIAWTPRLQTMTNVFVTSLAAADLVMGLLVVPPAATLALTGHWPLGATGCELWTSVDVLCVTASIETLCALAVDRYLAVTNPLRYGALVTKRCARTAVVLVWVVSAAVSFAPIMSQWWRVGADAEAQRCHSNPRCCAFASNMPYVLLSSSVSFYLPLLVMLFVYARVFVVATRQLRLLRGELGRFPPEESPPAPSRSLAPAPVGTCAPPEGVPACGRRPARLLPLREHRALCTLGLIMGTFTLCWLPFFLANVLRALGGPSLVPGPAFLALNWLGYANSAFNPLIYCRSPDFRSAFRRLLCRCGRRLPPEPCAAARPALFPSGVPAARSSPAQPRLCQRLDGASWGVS

[13] = molecular target: Kappa-type opioid receptor (Homo sapiens, UniProt P41145); assay: Displacement of [3H]-U69593 from human KOR expressed in HEK293 cell membranes after 90 mins by scintillation counting method
Translocator protein = Translocator protein (Rattus norvegicus, UniProt P16257); assay: Displacement of [3H]-PK11195 from rat brain TSPO after 90 mins by scintillation counting method
[14] = molecular target: Sodium-dependent serotonin transporter (Homo sapiens, UniProt P31645); assay: Displacement of [3H]-Citalopram from human SERT expressed in HEK293 cell membranes after 90 mins by scintillation counting method

## NS(=O)(=O)c1ccc(-c2cc(C(=O)O)cc(-n3cc(-c4ccc(C(F)(F)F)cc4)nn3)c2)s1
P2Y purinoceptor 14
  IC50: 6.44 µM

## NCCCCCCn1cc(CCCCN2CCC(c3ccc(-c4cc(C(=O)O)cc5cc(-c6ccc(C(F)(F)F)cc6)ccc45)cc3)CC2)nn1
[1]
  Ki: 1.87 µM
[2]
  Ki: 5.65 µM
[3]
  Ki: 8.4 µM
[4]
  Ki: 1.77 µM
[5]
  Ki: 1.11 µM
[6]
  Ki: 1.27 µM
[7]
  Ki: 0.028 µM
[8]
  Ki: 0.984 µM
D(1A) dopamine receptor
  Ki: 7.6 µM
D(2) dopamine receptor
  Ki: 8.21 µM
D(3) dopamine receptor
  Ki: 1.6 µM
D(1B) dopamine receptor
  Ki: 1.07 µM
Histamine H2 receptor
  Ki: 0.365 µM
[9]
  Ki: 1.2 µM
[10]
  Ki: 1.07 µM
P2Y purinoceptor 14
  IC50: 0.0254 µM

## NC(=O)c1cnc(-c2cc(C(=O)O)cc(-n3cc(-c4ccc(C(F)(F)F)cc4)nn3)c2)cn1
P2Y purinoceptor 14
  IC50: 0.566 µM

## CC(C)(C)OC(=O)NCCCCCCn1cc(CCCCN2CCC(c3ccc(-c4cc(C(=O)O)cc5cc(-c6ccc(C(F)(F)F)cc6)ccc45)cc3)CC2)nn1
[7]
  Ki: 5.28 µM
Histamine H2 receptor
  Ki: 0.829 µM
[11]
  Ki: 7.9 µM
[12]
  Ki: 2.36 µM
[13]
  Ki: 4.06 µM
Translocator protein
  Ki: 5.6 µM
[14]
  Ki: 2.08 µM
P2Y purinoceptor 14
  IC50: 0.133 µM

## NCCCNC(=O)c1csc(-c2cc(C(=O)O)cc(-n3cc(-c4ccc(C(F)(F)F)cc4)nn3)c2)c1
P2Y purinoceptor 14
  IC50: 0.735 µM

## NC(=O)c1ccc(-c2cc(C(=O)O)cc(-n3cc(-c4ccc(C(F)(F)F)cc4)nn3)c2)cn1
P2Y purinoceptor 14
  IC50: 1.41 µM

## O=C(O)c1cc(-c2ccc(CN3CCNCC3)s2)cc(-n2cc(-c3ccc(C(F)(F)F)cc3)nn2)c1
P2Y purinoceptor 14
  IC50: 1.96 µM

## NC(=O)c1ccc(-c2cc(C(=O)O)cc(-n3cc(-c4ccc(C(F)(F)F)cc4)nn3)c2)nc1
P2Y purinoceptor 14
  IC50: 0.516 µM

## CC(C)(C)OC(=O)N1CCN(S(=O)(=O)c2ccc(-c3cc(C(=O)O)cc(-n4cc(-c5ccc(C(F)(F)F)cc5)nn4)c3)s2)CC1
P2Y purinoceptor 14
  IC50: 54.7 µM

## NCCCNC(=O)c1ccc(-c2cc(C(=O)O)cc(-n3cc(-c4ccc(C(F)(F)F)cc4)nn3)c2)o1
P2Y purinoceptor 14
  IC50: 10.9 µM

## NCCCNC(=O)c1cc(-c2cc(C(=O)O)cc(-n3cc(-c4ccc(C(F)(F)F)cc4)nn3)c2)cs1
P2Y purinoceptor 14
  IC50: 1.75 µM

## FC(F)(F)c1ccc(-c2cn(-c3cc(Br)cc(-c4nnn[nH]4)c3)nn2)cc1
P2Y purinoceptor 14
  IC50: 33.1 µM

## CC(C)(C)OC(=O)N1CCN(S(=O)(=O)c2ccc(-c3cc(C(=O)O)cc(-n4cc(-c5ccc(C(F)(F)F)cc5)nn4)c3)cc2)CC1
P2Y purinoceptor 14
  IC50: > 50 µM

## CC(C)(C)OC(=O)N1CCN(Cc2ccc(-c3cc(C(=O)O)cc(-n4cc(-c5ccc(C(F)(F)F)cc5)nn4)c3)s2)CC1
P2Y purinoceptor 14
  IC50: 67.2 µM

## O=C(O)c1cc(-c2ccc(S(=O)(=O)N3CCNCC3)cc2)cc(-n2cc(-c3ccc(C(F)(F)F)cc3)nn2)c1
P2Y purinoceptor 14
  IC50: 1.64 µM

## CC(C)(C)OC(=O)NCCCCNS(=O)(=O)c1ccc(-c2cc(C(=O)O)cc(-n3cc(-c4ccc(C(F)(F)F)cc4)nn3)c2)s1
P2Y purinoceptor 14
  IC50: 13.6 µM

## NCCNS(=O)(=O)c1ccc(-c2cc(C(=O)O)cc(-n3cc(-c4ccc(C(F)(F)F)cc4)nn3)c2)s1
P2Y purinoceptor 14
  IC50: 2.26 µM

## CC(C)(C)NC(=O)c1ccc(-c2cc(-c3nnn[nH]3)cc(-n3cc(-c4ccc(C(F)(F)F)cc4)nn3)c2)cc1
P2Y purinoceptor 14
  IC50: 20.7 µM

## O=C(O)c1cc(-c2ccc(S(=O)(=O)N3CCNCC3)s2)cc(-n2cc(-c3ccc(C(F)(F)F)cc3)nn2)c1
P2Y purinoceptor 14
  IC50: 1.51 µM

## CC(C)(C)OC(=O)NCCNS(=O)(=O)c1ccc(-c2cc(C(=O)O)cc(-n3cc(-c4ccc(C(F)(F)F)cc4)nn3)c2)s1
P2Y purinoceptor 14
  IC50: 5.92 µM

## NCCCNC(=O)c1ccc(-c2cc(-c3nnn[nH]3)cc(-n3cc(-c4ccc(C(F)(F)F)cc4)nn3)c2)s1
P2Y purinoceptor 14
  IC50: 1.19 µM
